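Test compounds were applied to cells in 96-well plates for 48 hours at 5 doses. Abbreviation: GI50, concentration required for 50% inhibition of growth. TGI: total growth inhibition.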
What was measured:
Experiment in all cases: NCI-60 cell line screen, 48 h
DU-145 prostate = system: DU-145 prostate
NCI-H460 lung = system: NCI-H460 lung
M14 melanoma = system: M14 melanoma
CAKI-1 renal = system: CAKI-1 renal
T-47D breast = system: T-47D breast
SW-620 colon = system: SW-620 colon
MCF7 breast = system: MCF7 breast
U251 CNS = system: U251 CNS
UO-31 renal = system: UO-31 renal
OVCAR-3 ovarian = system: OVCAR-3 ovarian
HCT-15 colon = system: HCT-15 colon
HCC-2998 colon = system: HCC-2998 colon
786-0 renal = system: 786-0 renal
NCI-H23 lung = system: NCI-H23 lung
SF-295 CNS = system: SF-295 CNS
MALME-3M melanoma = system: MALME-3M melanoma
ACHN renal = system: ACHN renal
HCT-116 colon = system: HCT-116 colon
SNB-75 CNS = system: SNB-75 CNS
SNB-19 CNS = system: SNB-19 CNS
HOP-62 NSCLC = system: HOP-62 NSCLC
HS 578T breast = system: HS 578T breast
EKVX NSCLC = system: EKVX NSCLC
RPMI-8226 leukemia = system: RPMI-8226 leukemia
OVCAR-4 ovarian = system: OVCAR-4 ovarian
SK-MEL-2 melanoma = system: SK-MEL-2 melanoma
A549 NSCLC = system: A549 NSCLC
SK-MEL-5 melanoma = system: SK-MEL-5 melanoma
MDA-MB-231 breast = system: MDA-MB-231 breast
OVCAR-5 ovarian = system: OVCAR-5 ovarian

## O=C(Nc1ccc(-n2ccc3c(NC(=O)c4ccccc4)nccc32)cc1)c1ccc(N2CCOCC2)c(C(F)(F)F)c1
DU-145 prostate
  GI50: 105 nM
  TGI: > 87.6 µM
NCI-H460 lung
  GI50: 12.9 nM
  TGI: 1350 nM
M14 melanoma
  GI50: 430 nM
  TGI: > 68.2 µM
CAKI-1 renal
  GI50: 56.5 nM
  TGI: 15.7 µM
T-47D breast
  GI50: 2650 nM
  TGI: > 41.1 µM
SW-620 colon
  GI50: 69.7 nM
  TGI: > 100 µM
MCF7 breast
  GI50: 73.4 nM
  TGI: 25 µM
U251 CNS
  GI50: 44.1 nM
  TGI: 8.16 µM
UO-31 renal
  GI50: 557 nM
  TGI: 19.5 µM
OVCAR-3 ovarian
  GI50: 254 nM
  TGI: 9.89 µM
HCT-15 colon
  TGI: > 43.4 µM
HCC-2998 colon
  GI50: 600 nM
  TGI: > 53 µM
786-0 renal
  GI50: 364 nM
NCI-H23 lung
  GI50: 1390 nM
  TGI: > 44.8 µM
SF-295 CNS
  GI50: 62.1 nM
  TGI: 1700 nM
MALME-3M melanoma
  GI50: 5.96 µM
  TGI: 41.1 µM
ACHN renal
  GI50: 106 nM
  TGI: 22.8 µM
HCT-116 colon
  GI50: 35 nM
  TGI: 15.7 µM
SNB-75 CNS
  GI50: 518 nM
  TGI: 13.9 µM
SNB-19 CNS
  GI50: 481 nM
  TGI: > 81 µM
HOP-62 NSCLC
  GI50: 1740 nM
  TGI: 23.1 µM
HS 578T breast
  GI50: 1810 nM
  TGI: > 76.5 µM
EKVX NSCLC
  GI50: 3.9 µM
  TGI: > 100 µM
RPMI-8226 leukemia
  GI50: 91.2 nM
  TGI: > 100 µM
OVCAR-4 ovarian
  GI50: 7.09 µM
  TGI: > 60.8 µM
SK-MEL-2 melanoma
  GI50: 236 nM
  TGI: 15.8 µM
A549 NSCLC
  GI50: 48.8 nM
  TGI: 4.15 µM
SK-MEL-5 melanoma
  GI50: 92.8 nM
  TGI: 10.8 µM
MDA-MB-231 breast
  GI50: 4.07 µM
  TGI: > 60.9 µM
OVCAR-5 ovarian
  GI50: 4.83 µM

Reference: PubChem BioAssay (NCI)
